Laboratory results taken from patent publication US9096642B2, “Therapeutic compounds for immunomodulation” (Aurigene Discovery Technologies Limited, priority 2011, dated 2015).

Test system: B16F10 melanoma
Assay: B16F10 metastasis model (lung metastasis of B16F10 melanoma)
Type: in vivo, C57/b16J mice
Details: 5 mg/kg subcutaneously once daily; after 14 days of treatment; 0.1×10^6 B16F10 cells i.v.; versus vehicle control
Method: In vivo Efficacy of Compound 1 on Metastasis of B16F10 Melanoma
C57/b16J female mice (Aurigene, Bangalore, India) aged 6 to 8 weeks were used for the experiment. Animals were acclimatized for a week in the experimental room before conducting the experiment.
Effect of Compound 001 in B16F10 Metastasis Model
In the case of metastasis model, 0.1×10^6 B16F10 cells were injected to C57/b16J mice through i.v. Compound 001 dissolved in PBS, pH 7.4 was dosed subcutaneously at 5 mg/kg once daily. Vehicle control group of mice received only saline. Each group consisted of ten animals. Body weight and clinical signs were recorded daily. After 14 days of treatment, lung metastasis was quantitated by counting number of nodules under dissection microscope.

Question: Compound 001: SEQ ID NO: 3 (SNTSEFS) was tested. Which “reduction in metastasis (lung metastasis quantitated by counting number of nodules)” value did it give?
Answer: 64%
